Measured values reported in patent publication US20140179664A1, “Heterocyclyl Pyrimidine Analogues As JAK Inhibitors” (Cellzome Limited, priority 2011, published 2014).

What was measured:
TYK2 = target: T1, TYK2 (Homo sapiens, UniProt P29597); experiment: Kinobeads assay, TYK2; assay type: binding; conditions: mixed Molt4/Ramos lysate, read-out: Inhibition values (IC50) TYK2
T1 construct: endogenous in cells; host or cells: Molt4 (ATCC CRL-1582) and Ramos (ATCC CRL-1596), mixed lysate 1:2
Outline: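 Mixed Molt4/Ramos lysate (1:2, 10 mg/mL protein) was incubated 3 h in the cold with the immobilized aminopyrido-pyrimidine affinity matrix and compound, 9-step 1:3 dilutions. Bead-bound kinases were eluted and quantified by antibody dot blot with infrared detection. IC50s are from dose-response curves.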

JAK1 = target: T2, JAK1 (Homo sapiens, UniProt P23458); experiment: Kinobeads assay, JAK1; assay type: binding; conditions: mixed Molt4/Ramos lysate, read-out: Inhibition values (IC50) JAK1
T2 construct: endogenous in cells; host or cells: Molt4 (ATCC CRL-1582) and Ramos (ATCC CRL-1596), mixed lysate 1:2
T2 sequence (P23458 whole entry): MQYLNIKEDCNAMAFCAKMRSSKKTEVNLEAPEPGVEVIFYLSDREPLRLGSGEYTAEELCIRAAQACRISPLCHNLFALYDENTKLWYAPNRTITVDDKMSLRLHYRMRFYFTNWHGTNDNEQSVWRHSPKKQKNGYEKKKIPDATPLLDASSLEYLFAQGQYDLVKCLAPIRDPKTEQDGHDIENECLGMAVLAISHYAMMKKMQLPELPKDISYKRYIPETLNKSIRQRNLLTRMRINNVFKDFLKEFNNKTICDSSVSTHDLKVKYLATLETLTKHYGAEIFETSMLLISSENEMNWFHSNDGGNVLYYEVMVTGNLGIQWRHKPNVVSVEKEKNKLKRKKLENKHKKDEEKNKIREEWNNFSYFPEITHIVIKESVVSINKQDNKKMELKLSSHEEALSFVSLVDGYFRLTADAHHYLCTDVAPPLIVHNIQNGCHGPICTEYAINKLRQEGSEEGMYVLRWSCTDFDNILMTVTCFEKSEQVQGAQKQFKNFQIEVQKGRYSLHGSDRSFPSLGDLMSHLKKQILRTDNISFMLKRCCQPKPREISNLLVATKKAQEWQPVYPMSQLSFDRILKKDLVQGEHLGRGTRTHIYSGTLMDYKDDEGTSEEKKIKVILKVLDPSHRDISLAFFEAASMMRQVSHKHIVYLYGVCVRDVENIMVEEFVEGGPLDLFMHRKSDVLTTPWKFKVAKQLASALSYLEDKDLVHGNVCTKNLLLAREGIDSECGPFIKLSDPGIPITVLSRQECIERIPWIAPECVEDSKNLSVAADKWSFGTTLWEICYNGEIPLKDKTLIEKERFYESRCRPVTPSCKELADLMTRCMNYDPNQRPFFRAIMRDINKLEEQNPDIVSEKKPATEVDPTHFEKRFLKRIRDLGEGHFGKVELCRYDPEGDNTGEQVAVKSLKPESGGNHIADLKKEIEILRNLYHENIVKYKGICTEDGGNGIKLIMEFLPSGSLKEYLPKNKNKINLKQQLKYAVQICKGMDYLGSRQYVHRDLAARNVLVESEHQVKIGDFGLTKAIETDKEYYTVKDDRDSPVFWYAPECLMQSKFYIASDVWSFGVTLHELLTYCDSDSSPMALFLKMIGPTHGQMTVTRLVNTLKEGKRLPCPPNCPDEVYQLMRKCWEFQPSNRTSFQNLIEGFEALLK
Outline: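 Mixed Molt4/Ramos cell lysate (1:2) was incubated 3 hours in the cold with kinobeads and a 9-step 1:3 compound dilution series. The no-compound control carried 2% DMSO. Bead-bound JAK1 was eluted, detected by antibody dot blot with infrared fluorescence, and IC50 derived from dose-response curves.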

T1 sequence (P29597 whole entry): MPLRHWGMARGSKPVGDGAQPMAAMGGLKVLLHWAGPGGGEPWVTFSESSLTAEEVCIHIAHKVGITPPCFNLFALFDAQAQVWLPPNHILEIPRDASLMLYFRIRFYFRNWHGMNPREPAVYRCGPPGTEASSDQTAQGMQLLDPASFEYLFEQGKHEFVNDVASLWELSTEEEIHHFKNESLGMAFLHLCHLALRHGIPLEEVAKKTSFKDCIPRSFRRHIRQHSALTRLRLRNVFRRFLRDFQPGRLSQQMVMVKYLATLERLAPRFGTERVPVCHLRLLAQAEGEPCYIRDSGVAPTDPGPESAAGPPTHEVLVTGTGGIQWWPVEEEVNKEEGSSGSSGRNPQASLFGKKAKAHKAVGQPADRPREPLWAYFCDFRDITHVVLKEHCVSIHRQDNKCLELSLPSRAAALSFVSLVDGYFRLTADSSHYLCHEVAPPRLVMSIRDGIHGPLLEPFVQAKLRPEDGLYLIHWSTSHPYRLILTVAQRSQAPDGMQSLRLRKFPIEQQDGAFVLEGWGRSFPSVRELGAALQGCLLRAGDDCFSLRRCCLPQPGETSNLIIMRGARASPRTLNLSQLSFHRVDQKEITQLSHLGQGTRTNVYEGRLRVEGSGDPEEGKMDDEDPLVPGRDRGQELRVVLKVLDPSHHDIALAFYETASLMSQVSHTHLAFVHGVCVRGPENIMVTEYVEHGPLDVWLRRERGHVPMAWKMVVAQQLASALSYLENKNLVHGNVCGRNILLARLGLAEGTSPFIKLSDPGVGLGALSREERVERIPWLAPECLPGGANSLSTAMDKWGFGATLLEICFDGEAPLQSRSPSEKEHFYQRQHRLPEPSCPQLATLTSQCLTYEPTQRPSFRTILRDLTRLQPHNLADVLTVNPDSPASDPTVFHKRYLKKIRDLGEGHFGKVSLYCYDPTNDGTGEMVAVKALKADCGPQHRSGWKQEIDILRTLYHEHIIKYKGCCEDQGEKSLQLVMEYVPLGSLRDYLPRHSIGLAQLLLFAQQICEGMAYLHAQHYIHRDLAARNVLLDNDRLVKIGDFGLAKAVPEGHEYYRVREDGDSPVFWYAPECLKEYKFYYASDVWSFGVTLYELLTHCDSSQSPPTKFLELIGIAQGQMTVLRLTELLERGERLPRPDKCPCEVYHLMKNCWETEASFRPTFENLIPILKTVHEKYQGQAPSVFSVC

Row | SMILES | IC50 (TYK2) [nM] | IC50 (JAK1) [nM]
1 | Cn1cc(Nc2ncc(Cl)c(NC(CO)c3ccccc3)n2)cn1 (centres unmarked) [Compound 1] | 1000 to 10000 | 1000 to 10000
2 | Cn1cc(Nc2ncc(F)c(NC(CO)c3ccccc3)n2)cn1 (centres unmarked) [Compound 2] | 1000 to 10000 | > 10000
3 | Cn1ccc(Nc2ncc(Cl)c(N[C@H](CO)c3ccccc3)n2)n1 [Compound 11] | ≥ 10000 | > 10000
4 | Cc1cnc(Nc2cnn(CCO)c2)nc1NC(CO)c1ccccc1 (centres unmarked) [Compound 12] | 1000 to 10000 | 1000 to 10000
5 | O=C(c1cc(Nc2ncc(Cl)c(N[C@H](CO)c3ccccc3)n2)c[nH]1)N1CCOCC1 [Compound 13] | 100 to 1000 | 1000 to 10000
6 | Cn1cc(Nc2ncc(Cl)c(NC(CO)Cc3ccccc3)n2)cn1 (centres unmarked) [Compound 14] | 1000 to 10000 | 1000 to 10000
7 | COC(=O)C(Nc1nc(Nc2cnn(CCO)c2)ncc1Cl)c1ccccc1 (centres unmarked) [Compound 15] | 1000 to 10000 | 1000 to 10000
8 | COC(=O)C(Nc1nc(Nc2cnn(C)c2)ncc1Cl)c1ccccc1 (centres unmarked) [Compound 16] | 1000 to 10000 | 1000 to 10000
9 | O=C(O)C(Nc1nc(Nc2cnn(CCO)c2)ncc1Cl)c1ccccc1 (centres unmarked) [Compound 17] | ≥ 10000 | > 10000
10 | Cn1cc(Nc2ncc(Cl)c(NC(C(=O)O)c3ccccc3)n2)cn1 (centres unmarked) [Compound 18] | 1000 to 10000 | 1000 to 10000
11 | OCCn1cc(Nc2ncc(Cl)c(NC(CO)Cc3ccccc3)n2)cn1 (centres unmarked) [Compound 19] | 1000 to 10000 | 100 to 1000
12 | CNC(=O)[C@@H](Nc1nc(Nc2cnn(C)c2)ncc1Cl)c1ccccc1 [Compound 20] | 1000 to 10000 | 1000 to 10000
13 | CC(C)OC(=O)Cn1cc(Nc2ncc(Cl)c(N[C@H](CO)c3ccccc3)n2)cn1 [Compound 21] | 100 to 1000 | 1000 to 10000
14 | CCOC(=O)Cn1cc(Nc2ncc(Cl)c(N[C@H](CO)c3ccccc3)n2)cn1 [Compound 22] | 100 to 1000 | 100 to 1000
15 | CNC(=O)Cn1cc(Nc2ncc(Cl)c(N[C@H](CO)c3ccccc3)n2)cn1 [Compound 23, (S)-2-(4-((5-chloro-4-((2-hydroxy-1-phenylethyl)amino)pyrimidin-2-yl)amino)-1H-pyrazol-1-yl)-N-methylacetamide] | 1000 to 10000 | 100 to 1000
16 | O=C(O)Cn1cc(Nc2ncc(Cl)c(N[C@H](CO)c3ccccc3)n2)cn1 [Compound 24] | 1000 to 10000 | 1000 to 10000
17 | CN(C)C(=O)[C@@H](Nc1nc(Nc2cnn(C)c2)ncc1Cl)c1ccccc1 [Compound 25] | ≥ 10000 | 1000 to 10000
18 | CN(C)C(=O)[C@@H](Nc1nc(Nc2cnn(CCO)c2)ncc1Cl)c1ccccc1 [Compound 26] | 1000 to 10000 | 1000 to 10000
19 | CCNC(=O)[C@@H](Nc1nc(Nc2cnn(CCO)c2)ncc1Cl)c1ccccc1 [Compound 27] | 1000 to 10000 | 1000 to 10000
20 | CCNC(=O)[C@@H](Nc1nc(Nc2cnn(C)c2)ncc1Cl)c1ccccc1 [Compound 28] | 1000 to 10000 | 1000 to 10000
21 | COCCNC(=O)[C@@H](Nc1nc(Nc2cnn(C)c2)ncc1Cl)c1ccccc1 [Compound 29] | 1000 to 10000 | 1000 to 10000
22 | CN(C)C(=O)Cn1cc(Nc2ncc(Cl)c(N[C@H](CO)c3ccccc3)n2)cn1 [Compound 30] | 100 to 1000 | 100 to 1000
23 | CNC(=O)Cn1cc(Nc2ncc(Cl)c(NC(CO)c3c(F)cccc3F)n2)cn1 (centres unmarked) [Compound 31] | 1000 to 10000 | 1000 to 10000

Row | SMILES | IC50 (TYK2) [nM] | IC50 (JAK1) [nM]
24 | CNC(=O)Cn1cc(Nc2ncc(Cl)c(NC(CO)c3cccc(F)c3)n2)cn1 (centres unmarked) [Compound 32] | 1000 to 10000 | 1000 to 10000
25 | CNC(=O)Cn1cc(Nc2ncc(Cl)c(NC(CO)c3ccccc3F)n2)cn1 (centres unmarked) [Compound 33] | 1000 to 10000 | 1000 to 10000
26 | Cn1cc(Nc2ncc(Cl)c(N[C@H](C(=O)N3CCCC3)c3ccccc3)n2)cn1 [Compound 34] | ≥ 10000 | 1000 to 10000
27 | O=C([C@@H](Nc1nc(Nc2cnn(CCO)c2)ncc1Cl)c1ccccc1)N1CCCC1 [Compound 35] | 1000 to 10000 | 1000 to 10000
28 | OCCn1cc(Nc2ncc(Cl)c(NC(CO)c3ccccc3F)n2)cn1 (centres unmarked) [Compound 36] | 100 to 1000 | 100 to 1000
29 | Cn1cc(Nc2ncc(Cl)c(NC(CO)c3ccccc3F)n2)cn1 (centres unmarked) [Compound 37] | 1000 to 10000 | 1000 to 10000
30 | CC(O)Cn1cc(Nc2ncc(Cl)c(NC(CO)c3cccc(F)c3)n2)cn1 (centres unmarked) [Compound 38] | 1000 to 10000 | 100 to 1000
31 | OCCn1cc(Nc2ncc(Cl)c(NC(CO)c3cccc(F)c3)n2)cn1 (centres unmarked) [Compound 39] | 100 to 1000 | 100 to 1000
32 | Cn1cc(Nc2ncc(Cl)c(NC(CO)c3cccc(F)c3)n2)cn1 (centres unmarked) [Compound 40] | 1000 to 10000 | 1000 to 10000
33 | OCCn1ccc(Nc2ncc(Cl)c(NC(CO)c3cccc(F)c3)n2)n1 (centres unmarked) [Compound 41] | ≥ 10000 | > 10000
34 | CC(O)Cn1cc(Nc2ncc(Cl)c(NC(CO)c3c(F)cccc3F)n2)cn1 (centres unmarked) [Compound 42] | 100 to 1000 | 1000 to 10000
35 | OCCn1cc(Nc2ncc(Cl)c(NC(CO)c3c(F)cccc3F)n2)cn1 (centres unmarked) [Compound 43] | 100 to 1000 | 100 to 1000
36 | Cn1cc(Nc2ncc(Cl)c(NC(CO)c3c(F)cccc3F)n2)cn1 (centres unmarked) [Compound 44] | 1000 to 10000 | 1000 to 10000
37 | OCCn1ccc(Nc2ncc(Cl)c(NC(CO)c3c(F)cccc3F)n2)n1 (centres unmarked) [Compound 45] | 1000 to 10000 | > 10000
38 | Cn1cc(Nc2ncc(Cl)c(N[C@H](C(=O)NCCO)c3ccccc3)n2)cn1 [Compound 46] | 1000 to 10000 | 1000 to 10000
39 | O=C(NCCO)[C@@H](Nc1nc(Nc2cnn(CCO)c2)ncc1Cl)c1ccccc1 [Compound 47] | 1000 to 10000 | 100 to 1000
40 | COCCNC(=O)[C@@H](Nc1nc(Nc2cnn(CCO)c2)ncc1Cl)c1ccccc1 [Compound 48] | 1000 to 10000 | 100 to 1000
41 | Cn1cc(Nc2ncc(Cl)c(N[C@H](C(=O)N3CCCCC3)c3ccccc3)n2)cn1 [Compound 49] | ≥ 10000 | 1000 to 10000
42 | OCCn1ccc(Nc2ncc(Cl)c(NC(CO)c3ccccc3F)n2)n1 (centres unmarked) [Compound 50] | ≥ 10000 | > 10000
43 | O=C([C@@H](Nc1nc(Nc2cnn(CCO)c2)ncc1Cl)c1ccccc1)N1CCCCC1 [Compound 51] | ≥ 10000 | > 10000
44 | Cn1cc(Nc2ncc(Cl)c(NC(CO)c3cccc(Br)c3)n2)cn1 (centres unmarked) [Compound 52] | 1000 to 10000 | 1000 to 10000
45 | Cn1cc(Nc2ncc(Cl)c(NC(CO)c3cccc(N4CC5(COC5)C4)c3)n2)cn1 (centres unmarked) [Compound 53] | ≥ 10000 | > 10000
46 | Cn1cc(Nc2ncc(Cl)c(N[C@@H](CO)c3ccccc3)n2)cn1 [Compound 54] | 1000 to 10000 | > 10000

Row | SMILES | IC50 (TYK2) [nM] | IC50 (JAK1) [nM]
47 | COC[C@@H](Nc1nc(Nc2cnn(C)c2)ncc1Cl)c1ccccc1 [Compound 55] | ≥ 10000 | > 10000
48 | NC(=O)Cn1cc(Nc2ncc(Cl)c(N[C@H](CO)c3ccccc3)n2)cn1 [Compound 56] | 100 to 1000 | 100 to 1000
49 | CC(C)(O)Cn1cc(Nc2ncc(Cl)c(NC(CO)c3ccccc3F)n2)cn1 (centres unmarked) [Compound 57] | 1000 to 10000 | 1000 to 10000
50 | Cn1cc(Nc2ncc(Cl)c(N[C@H](CO)c3ccccc3F)n2)cn1 [Compound 58] | 1000 to 10000 | 1000 to 10000
51 | Cn1cc(Nc2ncc(Cl)c(N[C@H](C(=O)NC3CCCC3)c3ccccc3)n2)cn1 [Compound 59] | ≥ 10000 | > 10000
52 | O=C(NC1CCCC1)[C@@H](Nc1nc(Nc2cnn(CCO)c2)ncc1Cl)c1ccccc1 [Compound 60] | 1000 to 10000 | 1000 to 10000
53 | CC(C)(O)Cn1cc(Nc2ncc(Cl)c(NC(CO)c3cccc(F)c3)n2)cn1 (centres unmarked) [Compound 61] | 1000 to 10000 | 1000 to 10000
54 | CC(C)(O)Cn1cc(Nc2ncc(Cl)c(NC(CO)c3c(F)cccc3F)n2)cn1 (centres unmarked) [Compound 62] | 1000 to 10000 | 1000 to 10000
55 | OCCn1cc(Nc2ncc(Cl)c(N[C@@H](CO)c3ccccc3)n2)cn1 [Compound 63] | 1000 to 10000 | 1000 to 10000
56 | OCCCn1cc(Nc2ncc(Cl)c(NC(CO)c3ccccc3F)n2)cn1 (centres unmarked) [Compound 64] | 1000 to 10000 | 1000 to 10000
57 | OCC[C@@H](Nc1nc(Nc2cnn(CCO)c2)ncc1Cl)c1ccccc1 [Compound 65] | 1000 to 10000 | 1000 to 10000
58 | CNC(=O)Cn1cc(Nc2ncc(Cl)c(N[C@H](CCO)c3ccccc3)n2)cn1 [Compound 66] | 1000 to 10000 | 1000 to 10000
59 | CC(C)NC(=O)Cn1cc(Nc2ncc(Cl)c(N[C@H](CO)c3ccccc3)n2)cn1 [Compound 67] | 100 to 1000 | 100 to 1000
60 | O=C(Cn1cc(Nc2ncc(Cl)c(N[C@H](CO)c3ccccc3)n2)cn1)NC1CC1 [Compound 68] | 100 to 1000 | 100 to 1000
61 | Cn1cc(Nc2ncc(Cl)c(NC(CO)c3cccc(-c4cnn(C)c4)c3)n2)cn1 (centres unmarked) [Compound 69] | ≥ 10000 | > 10000
62 | CN(CC#N)C(=O)Cn1cc(Nc2ncc(Cl)c(N[C@H](CO)c3ccccc3)n2)cn1 [Compound 70] | 100 to 1000 | 100 to 1000
63 | Cn1cc(Nc2ncc(Cl)c(NC(CO)c3ccc(F)cc3)n2)cn1 (centres unmarked) [Compound 71] | 1000 to 10000 | 1000 to 10000
64 | OCCn1cc(Nc2ncc(Cl)c(NC(CO)c3ccc(F)cc3)n2)cn1 (centres unmarked) [Compound 72] | 1000 to 10000 | 1000 to 10000
65 | CC(C)(C(N)=O)n1cc(Nc2ncc(Cl)c(N[C@H](CO)c3ccccc3F)n2)cn1 [Compound 73] | 1000 to 10000 | 1000 to 10000
66 | COc1ccccc1[C@@H](CO)Nc1nc(Nc2cnn(C)c2)ncc1Cl [Compound 74] | 1000 to 10000 | 100 to 1000
67 | OC[C@@H](Nc1nc(Nc2cn[nH]c2)ncc1Cl)c1ccccc1 [Compound 75] | 1000 to 10000 | 1000 to 10000
